Reference: publication PMC9814781, “Structure-based design of a dual-warhead covalent inhibitor of FGFR4” (Communications Chemistry, 2022)

Legend:
parental Ba/F3 cells = assay: Ba/F3 cell viability assay; format: cell-based; conditions: Mus musculus, BaF3, 72 h, CCK-8
GSH reaction assay = format: in vitro ADME; conditions: GSH 5 mM, inhibitor 1 mM, 37°C, 10–60 min
Method: GSH (5 mM) and inhibitor (1 mM) or DMSO control were mixed in equal volumes and reacted at 37°C for 10 min, 20 min, 30 min, 40 min, 50 min, and 60 min. The remaining GSH was detected with DTNB (Beyotime, China), and the absorption light was measured at 412 nm on a plate reader (Perkin-Elmer). Data were determined using the time (min) versus % of control in Origin 2018 software.

TRKA = TRKA (Homo sapiens, UniProt P04629); assay: Kinase selectivity profiling
TRKA, sequence (P04629 33-796): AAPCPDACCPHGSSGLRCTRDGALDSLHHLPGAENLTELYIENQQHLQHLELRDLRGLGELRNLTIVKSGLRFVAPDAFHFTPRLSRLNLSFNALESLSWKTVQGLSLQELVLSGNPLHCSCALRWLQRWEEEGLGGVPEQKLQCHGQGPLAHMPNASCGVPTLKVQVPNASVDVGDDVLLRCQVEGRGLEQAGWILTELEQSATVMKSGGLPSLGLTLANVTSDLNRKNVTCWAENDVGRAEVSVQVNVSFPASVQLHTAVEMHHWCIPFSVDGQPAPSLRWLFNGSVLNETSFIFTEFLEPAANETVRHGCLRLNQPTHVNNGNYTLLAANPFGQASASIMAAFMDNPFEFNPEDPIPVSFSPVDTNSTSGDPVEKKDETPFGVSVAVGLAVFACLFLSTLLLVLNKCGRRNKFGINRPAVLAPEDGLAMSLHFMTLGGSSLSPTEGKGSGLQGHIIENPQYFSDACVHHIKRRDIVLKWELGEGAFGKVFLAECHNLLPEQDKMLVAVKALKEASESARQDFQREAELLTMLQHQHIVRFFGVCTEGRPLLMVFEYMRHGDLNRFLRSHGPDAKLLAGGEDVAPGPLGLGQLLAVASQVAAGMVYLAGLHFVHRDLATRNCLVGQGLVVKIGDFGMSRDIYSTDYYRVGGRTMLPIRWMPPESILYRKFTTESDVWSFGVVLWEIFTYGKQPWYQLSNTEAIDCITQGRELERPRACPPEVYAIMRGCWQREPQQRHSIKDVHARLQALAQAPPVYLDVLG

TRKC(NTRK3) = TRKC(NTRK3) (Homo sapiens, UniProt Q16288); assay: Kinase selectivity profiling
RSK3 = RSK3 (Homo sapiens, UniProt Q15349); assay: Kinase selectivity profiling
ALK = ALK (Homo sapiens, UniProt Q9UM73); assay: Kinase selectivity profiling
AKT1 = AKT1 (Homo sapiens, UniProt P31749); assay: Kinase selectivity profiling
AurC = AurC (Homo sapiens, UniProt Q9UQB9); assay: Kinase selectivity profiling
AurC, sequence (Q9UQB9 whole entry): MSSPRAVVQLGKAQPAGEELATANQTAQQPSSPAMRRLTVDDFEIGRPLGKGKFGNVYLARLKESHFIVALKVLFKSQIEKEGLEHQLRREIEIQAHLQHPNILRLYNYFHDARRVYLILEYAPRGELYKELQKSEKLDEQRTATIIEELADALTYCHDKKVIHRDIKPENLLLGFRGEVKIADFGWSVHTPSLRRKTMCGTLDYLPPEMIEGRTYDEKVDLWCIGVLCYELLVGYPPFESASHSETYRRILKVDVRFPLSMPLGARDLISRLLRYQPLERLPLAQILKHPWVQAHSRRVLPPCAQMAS

RET = RET (Homo sapiens, UniProt P07949); assay: Kinase selectivity profiling
ABL2 = ABL2 (Homo sapiens, UniProt P42684); assay: Kinase selectivity profiling
ABL2, sequence (P42684 whole entry): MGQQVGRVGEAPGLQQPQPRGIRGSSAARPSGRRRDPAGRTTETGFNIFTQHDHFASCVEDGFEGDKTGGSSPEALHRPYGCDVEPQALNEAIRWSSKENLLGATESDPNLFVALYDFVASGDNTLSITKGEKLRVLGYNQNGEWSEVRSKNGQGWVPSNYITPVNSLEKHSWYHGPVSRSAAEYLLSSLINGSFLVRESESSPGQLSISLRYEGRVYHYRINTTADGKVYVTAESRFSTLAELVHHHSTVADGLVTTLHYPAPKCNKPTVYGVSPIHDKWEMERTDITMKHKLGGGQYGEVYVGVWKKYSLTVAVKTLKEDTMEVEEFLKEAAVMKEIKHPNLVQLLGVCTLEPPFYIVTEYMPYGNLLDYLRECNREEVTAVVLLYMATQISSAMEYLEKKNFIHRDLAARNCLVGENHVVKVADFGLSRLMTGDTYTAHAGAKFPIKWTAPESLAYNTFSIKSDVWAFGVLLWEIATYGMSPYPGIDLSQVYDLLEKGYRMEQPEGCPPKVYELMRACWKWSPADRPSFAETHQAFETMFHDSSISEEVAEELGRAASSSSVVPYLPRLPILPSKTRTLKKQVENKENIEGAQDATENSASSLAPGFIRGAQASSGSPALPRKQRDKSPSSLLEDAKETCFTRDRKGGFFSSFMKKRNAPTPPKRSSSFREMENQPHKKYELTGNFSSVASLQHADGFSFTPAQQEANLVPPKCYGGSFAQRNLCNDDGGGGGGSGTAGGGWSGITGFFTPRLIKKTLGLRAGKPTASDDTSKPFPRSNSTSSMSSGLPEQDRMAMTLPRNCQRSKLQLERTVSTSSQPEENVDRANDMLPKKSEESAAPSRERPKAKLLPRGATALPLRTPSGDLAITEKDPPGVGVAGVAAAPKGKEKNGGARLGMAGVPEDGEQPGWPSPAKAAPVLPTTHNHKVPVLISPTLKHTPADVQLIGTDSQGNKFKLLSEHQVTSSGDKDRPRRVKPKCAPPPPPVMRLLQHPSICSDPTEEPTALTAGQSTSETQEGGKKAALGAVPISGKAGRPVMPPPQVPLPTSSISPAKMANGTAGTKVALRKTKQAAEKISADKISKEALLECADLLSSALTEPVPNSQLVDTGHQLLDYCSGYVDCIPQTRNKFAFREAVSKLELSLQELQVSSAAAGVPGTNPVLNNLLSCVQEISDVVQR

CLK1 = CLK1 (Homo sapiens, UniProt P49759); assay: Kinase selectivity profiling
DYRK1B = DYRK1B (Homo sapiens, UniProt Q9Y463); assay: Kinase selectivity profiling
MAP2K1 = MAP2K1 (Homo sapiens, UniProt Q02750); assay: Kinase selectivity profiling
DYRK2 = DYRK2 (Homo sapiens, UniProt Q92630); assay: Kinase selectivity profiling
p38γ = p38γ (Homo sapiens, UniProt P53778); assay: Kinase selectivity profiling
p38γ, sequence (P53778 whole entry): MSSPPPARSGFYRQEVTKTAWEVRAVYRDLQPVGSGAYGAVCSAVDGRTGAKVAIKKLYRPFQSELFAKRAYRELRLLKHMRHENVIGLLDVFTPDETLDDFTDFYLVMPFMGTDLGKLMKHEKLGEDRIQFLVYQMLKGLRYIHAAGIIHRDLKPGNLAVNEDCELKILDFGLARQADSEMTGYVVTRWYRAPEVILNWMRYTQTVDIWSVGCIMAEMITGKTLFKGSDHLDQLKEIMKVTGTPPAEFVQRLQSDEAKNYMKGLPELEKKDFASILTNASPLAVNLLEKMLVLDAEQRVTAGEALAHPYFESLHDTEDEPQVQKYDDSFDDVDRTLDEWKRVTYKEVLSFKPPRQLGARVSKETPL

FRK = FRK (Homo sapiens, UniProt P42685); assay: Kinase selectivity profiling
FRK, sequence (P42685 whole entry): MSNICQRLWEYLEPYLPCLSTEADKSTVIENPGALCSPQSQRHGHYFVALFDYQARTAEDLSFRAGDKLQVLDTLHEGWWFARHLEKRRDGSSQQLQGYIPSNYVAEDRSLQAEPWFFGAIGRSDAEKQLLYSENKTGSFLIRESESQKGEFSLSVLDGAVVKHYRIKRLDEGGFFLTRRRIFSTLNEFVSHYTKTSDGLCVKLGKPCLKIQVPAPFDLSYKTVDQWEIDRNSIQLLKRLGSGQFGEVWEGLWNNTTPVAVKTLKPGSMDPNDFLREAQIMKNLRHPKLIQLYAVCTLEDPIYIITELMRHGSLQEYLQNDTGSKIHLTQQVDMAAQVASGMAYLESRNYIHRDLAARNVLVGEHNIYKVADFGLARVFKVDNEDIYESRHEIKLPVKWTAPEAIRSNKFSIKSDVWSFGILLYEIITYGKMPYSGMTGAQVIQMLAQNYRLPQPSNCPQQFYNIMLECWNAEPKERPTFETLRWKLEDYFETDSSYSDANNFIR

CK1δ = CK1δ (Homo sapiens, UniProt P48730); assay: Kinase selectivity profiling
AurB = AurB (Homo sapiens, UniProt Q96GD4); assay: Kinase selectivity profiling
FYNb = FYNb (Homo sapiens, UniProt P06241); assay: Kinase selectivity profiling
MUSK = MUSK (Homo sapiens, UniProt O15146); assay: Kinase selectivity profiling
MUSK, sequence (O15146 24-869): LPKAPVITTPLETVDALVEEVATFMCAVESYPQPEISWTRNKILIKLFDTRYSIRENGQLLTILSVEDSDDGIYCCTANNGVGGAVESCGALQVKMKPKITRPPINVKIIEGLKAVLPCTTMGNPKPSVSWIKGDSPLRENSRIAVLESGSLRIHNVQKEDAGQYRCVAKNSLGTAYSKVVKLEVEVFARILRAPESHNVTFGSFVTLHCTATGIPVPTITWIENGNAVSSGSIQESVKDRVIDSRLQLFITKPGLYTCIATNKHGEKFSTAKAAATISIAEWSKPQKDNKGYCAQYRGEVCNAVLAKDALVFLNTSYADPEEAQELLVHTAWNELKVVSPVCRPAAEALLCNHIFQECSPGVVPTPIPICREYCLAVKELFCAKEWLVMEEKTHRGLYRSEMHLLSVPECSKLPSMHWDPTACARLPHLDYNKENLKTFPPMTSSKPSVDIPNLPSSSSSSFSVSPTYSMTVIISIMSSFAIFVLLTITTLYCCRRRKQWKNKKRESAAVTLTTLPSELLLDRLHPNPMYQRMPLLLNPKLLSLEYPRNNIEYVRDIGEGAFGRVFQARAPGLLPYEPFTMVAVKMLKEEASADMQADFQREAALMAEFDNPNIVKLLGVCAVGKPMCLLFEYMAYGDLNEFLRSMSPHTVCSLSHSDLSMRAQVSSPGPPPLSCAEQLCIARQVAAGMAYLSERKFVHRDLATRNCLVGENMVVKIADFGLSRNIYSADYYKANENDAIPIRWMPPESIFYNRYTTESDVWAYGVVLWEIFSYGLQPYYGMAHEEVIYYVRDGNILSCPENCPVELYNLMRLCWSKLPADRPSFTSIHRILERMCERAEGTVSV

HIPK3 = HIPK3 (Homo sapiens, UniProt Q9H422); assay: Kinase selectivity profiling
CK1γ3 = CK1γ3 (Homo sapiens, UniProt Q9Y6M4); assay: Kinase selectivity profiling
YSK1 = YSK1 (Homo sapiens, UniProt O00506); assay: Kinase selectivity profiling
YSK1, sequence (O00506 whole entry, the tested form may be a part): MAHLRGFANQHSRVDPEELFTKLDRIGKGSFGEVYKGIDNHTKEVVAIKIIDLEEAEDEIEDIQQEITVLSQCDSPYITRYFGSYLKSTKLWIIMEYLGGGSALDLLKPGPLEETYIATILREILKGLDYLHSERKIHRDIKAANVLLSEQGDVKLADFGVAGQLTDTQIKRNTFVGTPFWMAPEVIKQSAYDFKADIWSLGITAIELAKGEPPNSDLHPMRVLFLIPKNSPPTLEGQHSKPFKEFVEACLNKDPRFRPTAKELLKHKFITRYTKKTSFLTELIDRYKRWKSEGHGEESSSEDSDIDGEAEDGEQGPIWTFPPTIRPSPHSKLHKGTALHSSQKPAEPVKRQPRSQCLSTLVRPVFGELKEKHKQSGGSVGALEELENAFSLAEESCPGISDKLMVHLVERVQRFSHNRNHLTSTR

FGFR2 = FGFR2 (Homo sapiens, UniProt P21802); assay: Kinase inhibition assay (ADP-Glo); format: biochemical; set-up: FGFR2 (residues 453–770); 6xHis + PreScission site (N, cleaved yes); made in house; host or cells: Escherichia coli Rosseta
FGFR2, sequence (P21802 453-770): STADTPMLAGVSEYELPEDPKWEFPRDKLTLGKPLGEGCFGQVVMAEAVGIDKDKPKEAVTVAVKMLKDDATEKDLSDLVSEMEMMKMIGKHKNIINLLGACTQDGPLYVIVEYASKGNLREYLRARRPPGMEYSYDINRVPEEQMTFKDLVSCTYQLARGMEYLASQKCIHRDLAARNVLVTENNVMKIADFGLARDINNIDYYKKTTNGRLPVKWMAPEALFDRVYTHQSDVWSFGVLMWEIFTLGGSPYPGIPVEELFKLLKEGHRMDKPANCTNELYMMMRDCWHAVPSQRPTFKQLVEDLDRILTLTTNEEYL
Method: (§1) Wild-type FGFRs and mutant FGFRs were prepared as previously described[25]–[27]. In brief, the kinase domains of human FGFR1 (residues 456–765), FGFR2 (residues 453–770), FGFR3 (residues 450–758), and FGFR4 (residues 445–753) were cloned into a modified pET28a expression vector and then transfected into Escherichia coli Rosseta cells. The N-terminal of the recombinant proteins were contained a 6xHis tag followed by a PreScission cleavage site for FGFR1, FGFR2, FGFR3, and FGFR4. Site-directed mutagenesis of FGFR4 was generated according to the ClonExpress II One Step Cloning Kit (Vazyme) using the pET28a-FGFR4 plasmid as the template. These mutants were confirmed by DNA sequencing (Tsingke, Changsha, China). For crystallization experiments, the wild-type FGFR4 plasmid was co-expressed with untagged YOPH to obtain non-phosphorylated proteins. The proteins were first purified by Ni-NTA affinity chromatography. […]
(§2) All kinase inhibition assays were performed with optimized kinase assay buffer consisting of 40 mM Tris-HCl pH 7.5, 20 mM MgCl2, 20 mM NaCl, 0.1 mg/mL BSA, 1 mM TCEP, and 4% DMSO. […] Fluorescence was measured on a multimode plate reader (Perkin-Elmer) using a chemiluminescence program after the addition of the detection reagent. IC50 values were determined using a three-parameter log [Inhibitor] versus response model in GraphPad Prism software.

FGFR3 = FGFR3 (Homo sapiens, UniProt P22607); assay: Kinase inhibition assay (ADP-Glo); format: biochemical; set-up: FGFR3 (residues 450–758); 6xHis + PreScission site (N, cleaved yes); made in house; host or cells: Escherichia coli Rosseta
FGFR3, sequence (P22607 450-758): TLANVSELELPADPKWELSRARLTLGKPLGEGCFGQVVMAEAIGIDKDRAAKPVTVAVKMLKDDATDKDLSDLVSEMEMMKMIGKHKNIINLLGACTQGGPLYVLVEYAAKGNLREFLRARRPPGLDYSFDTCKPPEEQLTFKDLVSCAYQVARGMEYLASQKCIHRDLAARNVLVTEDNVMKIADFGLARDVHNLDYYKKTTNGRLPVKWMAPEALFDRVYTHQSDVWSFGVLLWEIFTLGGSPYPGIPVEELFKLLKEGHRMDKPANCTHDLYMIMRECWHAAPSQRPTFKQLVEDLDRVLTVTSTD
Method: as §1, §2

For `C=CC(=O)Nc1ccccc1Nc1ncc2c(n1)N(CCCN1CCN(C(=O)C=C)CC1)C(=O)N(c1cc(OC)cc(OC)c1)C2` [CXF-009], the IC50 (parental Ba/F3 cells) was over 5 µM, the “GSH reactivity (remaining GSH, DTNB)” value (GSH reaction assay) was “slightly more reactive to GSH than PRN1371” and the inhibition at 1 µM (TRKA) was 26.2%. The inhibition at 1 µM (TRKC(NTRK3)) was 8.57%, the inhibition at 1 µM (RSK3) was 7.58% and the inhibition at 1 µM (ALK) was 7.28%. For the same compound, the inhibition at 1 µM (AKT1) was 3.98%, the inhibition at 1 µM (AurC) was 2.77% and the inhibition at 1 µM (RET) was 1.72%. It also gave an inhibition at 1 µM (ABL2) of 1.61%, an inhibition at 1 µM (CLK1) of 1.48% and an inhibition at 1 µM (DYRK1B) of 0.62%. The inhibition at 1 µM (MAP2K1) was 0.59%, the inhibition at 1 µM (DYRK2) was 0.38% and the inhibition at 1 µM (p38γ) was 0.13%. It also gave an inhibition at 1 µM (FRK) of -0.22%, an inhibition at 1 µM (CK1δ) of -1.29% and an inhibition at 1 µM (AurB) of -2.47%. For the same compound, the inhibition at 1 µM (FYNb) was -2.49%, the inhibition at 1 µM (MUSK) was -3.46% and the inhibition at 1 µM (HIPK3) was -4.6%. For the same compound, the inhibition at 1 µM (CK1γ3) was -7.86%, the inhibition at 1 µM (YSK1) was -8.51% and the IC50 (FGFR2) was 2.41 µM. The IC50 (FGFR3) was 0.977 µM.
